Key:
C2C12 myoblast cells [1] = tested on: C2C12 myoblast cells
Method: Mammalian cells (e.g., C2C12 myoblast cells) are treated with a suitable amount of a test compound (e.g., 5 μM reversine) in DMEM supplemented with 10% FBS for four days. The compound is then removed and medium is changed to ODM every two days. After seven days following induction of osteogenesis, the cells are washed with PBS (200 μL, 3 times) and fixed with 10% formalin solution (Sigma) for 20 min. The fixed cells are then washed with PBS (200 μL, 3 times) and stained with the Alkaline Phosphatase Staining Kit 86R (Sigma) as directed by the manufacturer. Images are taken on a Nikon Eclipse TE2000 microscope at 200 fold magnification.
(§1) After four days of treatment with reversine, the compound was removed and cells were then grown in osteogenic differentiation medium (ODM) or adipogenic differentiation medium (ADM).

C2C12 myoblast cells [2] = tested on: C2C12 myoblast cells; remark: listed apart in the source
Method: Mammalian cells (e.g., C2C12 myoblast cells) were treated with a suitable amount of a test compound (e.g., 5 μM reversine) in DMEM supplemented with 10% FBS for four days. The compound was then removed and medium was changed to adipogenic differentiation medium (ADM) containing 0.5 mM 3-isobutyl-1-methylxanthine, 2.5 μg/ml insulin, and 0.5 μM dexamethasone. Typically, the ADM is replaced every two days. After seven days following induction of adipogenesis, the cells are washed with PBS (200 μL, 3 times) and fixed with 10% formalin solution (Sigma) for 10 min. The fixed cells are then washed with PBS (200 μL, 3 times) and stained with the 0.7% Oil Red O (Sigma) as directed by the manufacturer. Images are taken on a Nikon Eclipse TE2000 microscope at 200 fold magnification.
as §1

C2C12 cells = conditions: single-cell colonies, 6 days of treatment, portions cultured in ODM and ADM
Method: Clonal analysis is used to verify that reversine can induce dedifferentiation at the single cell level. C2C12 cells were cultured from a single cell and treated with reversine. After 6 days of treatment, each colony was divided into two portions. One portion was cultured in ODM and another portion was cultured in ADM. The cells were then analyzed using the staining assays described in Example 1.

C2C12 myoblasts cells = assay: Cell death at effective concentration
Method: as §1

C2C12 myoblast cells [3] = conditions: 5 μM compound for four days, then seven days in osteogenic inducing medium; BBTP substrate
Method: C2C12 cells (ATCC CRL-1772) are cultured in DMEM (Gibco) supplemented with 10% fetal bovine serum (HyClone) at 37° C. in 5% CO2.
For the small molecule screen, proliferating C2C12 cells are plated into black 384-well tissue culture plates (Greiner) at a density of 1,000 cells/well in DMEM with 10% FBS. […] After the cells are treated with test compounds for four days, the test compound is removed and the cell culture medium is changed to osteogenic differentiation medium (ODM) containing 50 μg/ml ascorbic acid 2-phosphate, 0.1 μM dexamethasone and 10 mM β-glycerophosphate. Cell culture medium is typically changed every two days. After seven additional days of culture in ODM, the ODM is removed and cells are lysed by incubation in 10 μL passive lysis buffer (Promega) for 10 min, followed by addition of 10 μL alkaline phosphatase substrate solution (AttoPhos, Promega). After a 15 minute room temperature incubation, fluorescence intensity is read on an Acquest (Molecular Devices) as directed by the manufacturer. […]

C2C12 myoblast cells [4] = conditions: 5 μM reversine, day four of compound treatment

## c1nc2nc(Nc3ccc(N4CCOCC4)cc3)nc(NC3CCCCC3)c2[nH]1 [Compound A, 2-(4-Morpholinoanilino)-6-cyclohexylamino-purine]
C2C12 myoblast cells [1]; four days of treatment, compound removed, ODM conditions, end of day seven
  cells stained positive for ALP: 35%
C2C12 myoblast cells [1]; in the absence of ODM
  osteogenesis activity of compound alone: no osteogenesis activity
C2C12 myoblast cells [2]; four days of treatment, compound removed, ADM condition, end of day seven
  cells with fat cell morphology, stained positive with Oil Red O: 40%
C2C12 myoblast cells [2]; in the absence of ADM
  adipogenesis activity of compound alone: no adipogenesis activity
C2C12 cells
  colonies determined to be multipotent: 56 of 97
C2C12 myoblasts cells
  cell death: no significant cell death
C2C12 myoblasts cells; C2C12 dedifferentiation
  effective concentration: 0.5 to 5 µM
C2C12 myoblast cells [3]
  level of ALP activity relative to the DMSO control treatment: 7 fold
C2C12 myoblast cells [4]
  myogenic specific markers such as MyoD and myosin: began to disappear
  myotube formation: completely inhibited

Reference: patent publication US20130196989A1, “COMPOSITIONS AND METHODS FOR INDUCING CELL DEDIFFERENTIATION” (The Scripps Research Institute, priority 2003, published 2013)
